Experimental data: patent publication US9850205B2, “Stable apremilast crystalline form II free of solvate and method of making the same” (UTOPHARM (SHANGHAI) CO., LTD, priority 2015, dated 2017)

Legend:
[1] = Comparison of pharmacokinetics in Beagle dogs (oral capsule of crude drug powder, LC-MS/MS plasma concentration); type: in vivo; settings: both sexes, dog, 30 mg crude drug powder capsule, single period
Procedure: 6 healthy Beagle dogs weight 6-8 kg with half males and half females were divided randomly into 2 groups, each group having 3.
According to the administration route and dosage amounts, medicine is administrated orally and the dosage is 30 mg/dog/time. After crude drug powder of two crystal forms being weighed about 30 mg respectively, capsule shell is used to be filled and 10 ml water is used accompanied with administration. The Beagle dogs were fasted for 12 hours before the study, and food is provided in 4 hours after administration. Water deprivation was not required during the whole study. Specific administration groups are designed in the table as below.
0.5ml venous blood was collected via the small saphenous veins 10, 30 min, 1, 2, 4, 6, 8, 10, 12, 24, 48 and 72 h before (0 hour) or after administration. After centrifugation for 5 minutes at 8000 rpm, blood plasma is separated out and placed in anti freezing plastic test tube for storing in refrigerator at −20 C temporarily.
Concentration of APST in blood plasma is tested by LC-MS/MS method. The linearity range of APST testing is 5 to 5000 ng/ml, and the linear is good.

[2] = Thermostability experiments: forms suspended in water and stirred at 60 and 100° C.; type: physicochemical; settings: for increased amount of related substance, N-deacetylates: stirred in water at 100° C. for 48 h; for electrostatic effect: suspended in water at 100° C., stirred 24 h, filtered and dried; for DSC / X-ray powder diffraction (change) / melting temperature (change) / X-ray powder diffraction pattern (change): suspended in water; for melting temperature (change): numbers are decreases
Procedure: Apremilast Crystalline Form II and Form B were suspended in water and stirred for 24-48 h under 60 and 100° C., respectively, then cooled, filtered, and dried, and X-ray powder diffraction patterns, DSC patterns, melting temperature and related substance were determined (see Table 4).
Apremilast Crystalline Form II and Form B were suspended in water, respectively, stirred at 60-100° C. for 48 h sampled at a certain time interval and filtered, dried to determine the change of melting temperature; sampled at 24 h, 48 h, filtered and dried to determine change of XRPD patterns, DSC patterns, melting temperature, electrostatic effects, and related substances.

[3] = Influence factors (stability) experiments of Form I, Form II and Form B; type: physicochemical
Excerpt: 2. Influence factors experiments of Form I, Form II and Form B:
In addition, the same batch of raw materials was crystallized in acetone/ethyl alcohol to produce Form B and crystallized in acetone/water to produce Form I and Form II, then compare the appearance and color of the products.

[4] = In vivo pharmacokinetic comparison study in SD rats (gavage, LC-MS/MS plasma concentration); settings: for AUC(0-t) / Cmax / Tmax: SD (Sprague-Dawley), rat, plasma, po, gavage 10 mg/kg suspension; for AUC(0-t): read-out: area under the curve AUC0-t; for Cmax: read-out: peak concentrations Cmax; for Tmax: 10 mg/kg
Procedure: Twelve SD rats weight 200-220 g with half males and half females were divided randomly into 2 groups (named as group A and group B).
According to the administration route and dosage amounts provided in FDA references, the two crystalline forms were given by gavage to investigate their pharmacokinetic behaviors in rats. The dosage amounts of the two forms are both 10 mg/kg (solvent is 1% carboxymethylcellulose). The rats were fasted for 12 hs before the study, food was provided 4 hs after administration, water deprivation was not required during the whole study. • Blood was collected via the fundus venous plexus 10, 30mins, 1, 2, 4, 6, 8, 10, 12 and 24 hs after administration. The collected blood was placed on ice and centrifuged for 5min at 8000 rpm, plasma was separated, and cryoperserved in a −20° C. refrigerator. LC-MS/MS was used to determine the concentration of APST in plasma. Linearity range of APST in plasma is 2-1000ng/ml, the linearity was good.

[5] = Electrostatic effect under the same micronization condition; type: physicochemical
Excerpt: Large electrostatic effect will adversely affect the preparation processing.

[6] = Solubility of Form II and Form B in common solvents; type: physicochemical; settings: acetone, butanone, ethyl alcohol, methanol, ethyl acetate, acetonitrile, dichloromethane, tetrahydrofuran, petroleum ether, n-hexane, water
Procedure: The solubility of Form II and Form B in common solvents such as acetone, butanone, ethyl alcohol, methanol, ethyl acetate, acetonitrile, dichloromethane, tetrahydrofuran, petroleum ether, n-hexane, water was tested and compared.

[7] = Crystalline form conversion study, suspension in acetone/water at reflux; type: physicochemical; settings: suspended in acetone/water (1:3), refluxing temperature; Form B 36 h, Form D 8-10 h
Procedure: In addition, pure Form II can obtained by suspending crashed Forms A, B, C, D, E, F and/or G in acetone/water and stirring at 50° C. to refluxing temperature for 1-48 h.
Apremilast Crystalline Form B (5.0 g, particle size less than 300 mesh) was suspended in 60 ml acetone/water (1:3), heated to refluxing temperature and stirred for 36 h, then cooled while stirring, filtered, dried at 60° C. to obtain about 4.88 g of Apremilast Crystalline Form II, mp:148.3-150.3° C.
Apremilast Crystalline Form D (5.0 g, particle size less than 200mesh) was suspended in 60m1 acetone/water (1:3), heated to refluxing temperature and stirred for 8-10 h, then cooled while stirring, filtered, dried at 60° C. to obtain about 4.60 g of Apremilast Crystalline Form II, mp:148.3-150.5° C.

[8] = both sexes, SD rats, males and females together, read-out: time to peak Tmax
[9] = both sexes, SD rats, males and females together, read-out: time to peak Tmax (median)
[10] = both sexes, SD rats, males and females together
[11] = female, female rats, read-out: time to peak Tmax
[12] = female, female rats, read-out: time to peak Tmax (median)
[13] = male, male rats, read-out: time to peak Tmax
[14] = male, male rats, read-out: time to peak Tmax (median)

AUC(0-inf) [1] | AUC(0-t) [1] | Cmax [1] | Tmax [1] | increased amount of related substance, N-deacetylates [2] | electrostatic effect [2] | DSC ([2]; 60° C., 48 h) | X-ray powder diffraction (change) ([2]; 60° C., 48 h) | melting temperature (change) ([2]; 60° C., 48 h) | X-ray powder diffraction pattern (change) ([2]; 100° C., 24~48 h) | melting temperature (change) ([2]; 100° C., 24~48 h) | stability under high temperature and high humidity conditions [3] | Change of related substance/high temperature for 10 days [3] | moisture absorption/humidity 92.5% Change of related substances [3] | moisture absorption/humidity 92.5% weight gain [3] | Change of related substances/light exposure for 10 days [3] | AUC(0-t) ([4]; female rats) | Cmax ([4]; female rats) | AUC(0-t) ([4]; male rats) | Cmax ([4]; male rats) | SMILES | other results
38200 ± 13000 ng·h/mL | 37700 ± 22400 ng·h/mL | 2050 ± 357 ng/mL | 9 ± 13 h | 0.046% | essentially no electrostatic effect | 150 °C | essentially no | essentially no | essentially no | essentially no | stable | Essentially no | essentially no | <1.0% | essentially no | 10600 ± 1050 ng·h/mL | 906 ± 179 ng/mL | 446 ± 81.2 ng·h/mL | 108 ± 16.1 ng/mL | CCOc1cc(C(CS(C)(=O)=O)N2C(=O)c3cccc(NC(C)=O)c3C2=O)ccc1OC (single isomer, unassigned; (+)) [Form II, (+)-2-[1-(3-ethoxy-4-methoxyphenyl)-2-methylsulfonylethyl]-4-acetylaminoisoindoline-1,3-dione] | DSC ([2]; 100° C., 24~48 h): 150 °C; Tmax [4, 8]: 1 to 6 h; Tmax [4, 9]: 3 h; AUC(0-t) [4, 10]: 5530 ± 5610 ng·h/mL; Cmax [4, 10]: 507 ± 452 ng/mL; exposure of Form II relative to the exposure of Form B ([4]; female SD rats): 1.5 times; Tmax [4, 11]: 4 to 6 h; Tmax [4, 12]: 6 h; Tmax [4, 13]: 1 to 2 h; Tmax [4, 14]: 1 h; electrostatic effect [5]: weak or no electrostatic effect; solubility, Form II compared with Form B [6]: essentially no difference
38500 ± 20500 ng·h/mL | 38000 ± 20500 ng·h/mL | 2410 ± 377 ng/mL | 1.7 ± 0.6 h | 0.059% | serious electrostatic effect | 157 °C | weak | Decreased 2-3 °C | Weak absorption | Decreased 3-4 °C | stable | – | – | <1.0% | – | 7000 ± 1140 ng·h/mL | 904 ± 28.5 ng/mL | 530 ± 70 ng·h/mL | 142 ± 14 ng/mL | CCOc1cc([C@@H](CS(C)(=O)=O)N2C(=O)c3cccc(NC(C)=O)c3C2=O)ccc1OC [Form B, (+)-2-[1-(3-ethoxy-4-methoxyphenyl)-2-methylsulfonylethyl]-4-acetylaminoisoindoline-1,3-dione] | conversion of crystalline form (XRPD pattern and DSC pattern) [7]: complete conversion to Form II; exposure of APST-B as percentage of the exposure of APST-II ([4]; SD rats, males and females together, gavage 10 mg/kg): about 68.07%; Tmax [4, 8]: 1.6 h; Tmax [4, 9]: 2.5 h; AUC(0-t) [4, 10]: 3770 ± 3620 ng·h/mL; Cmax [4, 10]: 523 ± 417 ng/mL; AUC0-t of APST-B as percentage of that of APST-II ([4]; female rats, gavage 10 mg/kg): 65.9%; Tmax [4, 11]: 2 to 6 h; Tmax [4, 12]: 4 h; AUC0-t of APST-B as percentage of that of APST-II ([4]; male rats, gavage 10 mg/kg): ~119.0%; Cmax of APST-B as percentage of that of APST-II ([4]; male rats, gavage 10 mg/kg): about 132.3%; Tmax [4, 13]: 1 h; Tmax [4, 14]: 1 h; electrostatic effect [5]: higher electrostatic effect; solubility, Form II compared with Form B [6]: essentially no difference
– | – | – | – | – | – | – | – | – | – | – | stable | Essentially no | essentially no | – | essentially no | – | – | – | – | CCOc1cc([C@@H](CS(C)(=O)=O)N2C(=O)c3cccc(NC(C)=O)c3C2=O)ccc1OC [Form I, (+)-2-[1-(3-ethoxy-4-methoxyphenyl)-2-methylsulfonylethyl]-4-acetylaminoisoindoline-1,3-dione] | –
